Data reported in patent US8580525B2, “Methods of screening for LTRPC7 modulators” (The Queen's Medical Center, priority 2000, dated 2013).

Tests used:
[1] = tested on: RBL-2H3; test: ATP-dependent endogenous currents, whole-cell patch-clamp; type: cell-based; conditions: 6 mM ATP in pipette solution
Protocol: (§1) For patch-clamp experiments, cells grown on glass coverslips were transferred to the recording chamber and kept in a standard modified Ringer's solution of the following composition (in mM): NaCl 145, KCl 2.8, CsCl 10, CaCl2 1, MgCl2 2, glucose 10, Hepes.NaOH 10, pH 7.2. In some experiments, nominally Ca^2+ and/or Mg^2+-free extracellular solutions or isotonic Ca^2+ solutions (120 mM CaCl2) were applied by pressure ejection from wide-tipped pipettes. Intracellular pipette-filling solutions contained (in mM): Cs-glutamate 145, NaCl 8, MgCl2 1, Cs-BAPTA 10, pH 7.2 adjusted with CsOH. In some experiments, Cs-glutamate was replaced equimolarly by K-glutamate or N-methyl-D-glucamine-chloride. Patch-clamp experiments were performed in the tight-seal whole-cell configuration at 21-25° C. High-resolution current recordings were acquired by a computer-based patch-clamp amplifier system (EPC-9, HEKA, Lambrecht, Germany). Sylgard-coated patch pipettes had resistances between 2-4 M after filling with the standard intracellular solution. […] Capacitive currents and series resistance were determined and corrected before each voltage ramp using the automatic capacitance compensation of the EPC-9. […]

[2] = tested on: Jurkat T-lymphocytes; test: as above; type: cell-based; conditions: 6 mM ATP in pipette solution
Protocol: as §1

[3] = tested on: Wild type HEK-293; test: as above; type: cell-based, human; conditions: 6 mM ATP in pipette solution
Protocol: as §1

[4] = target: T1, LTRPC7 (Mus musculus, UniProt Q923J1); test: Intracellular perfusion with ATP, whole-cell patch-clamp of recombinant LTRPC7; type: cell-based
T1 construct: expressed in transfected cells
Protocol: For patch-clamp experiments, cells grown on glass coverslips were transferred to the recording chamber and kept in a standard modified Ringer's solution of the following composition (in mM): NaCl 145, KCl 2.8, CsCl 10, CaCl2 1, MgCl2 2, glucose 10, Hepes.NaOH 10, pH 7.2. In some experiments, nominally Ca^2+ and/or Mg^2+-free extracellular solutions or isotonic Ca^2+ solutions (120 mM CaCl2) were applied by pressure ejection from wide-tipped pipettes. Intracellular pipette-filling solutions contained (in mM): Cs-glutamate 145, NaCl 8, MgCl2 1, Cs-BAPTA 10, pH 7.2 adjusted with CsOH. In some experiments, Cs-glutamate was replaced equimolarly by K-glutamate or N-methyl-D-glucamine-chloride. Patch-clamp experiments were performed in the tight-seal whole-cell configuration at 21-25° C. High-resolution current recordings were acquired by a computer-based patch-clamp amplifier system (EPC-9, HEKA, Lambrecht, Germany). Sylgard-coated patch pipettes had resistances between 2-4 M after filling with the standard intracellular solution. Immediately following establishment of the whole-cell configuration, voltage ramps of 50 ms duration spanning the voltage range of −100 to +100 mV were delivered from a holding potential of 0 mV at a rate of 0.5 Hz over a period of 200 to 400 seconds. All voltages were corrected for a liquid junction potential of 10 mV between external and internal solutions when internal solutions contained glutamate. Currents were filtered at 2.3 kHz and digitized at 100 μs intervals. Capacitive currents and series resistance were determined and corrected before each voltage ramp using the automatic capacitance compensation of the EPC-9. The low-resolution temporal development of currents at a given potential was extracted from individual ramp current records by measuring the current amplitudes at voltages of −80 mV or +80 mV.

T1 sequence (Q923J1 2-1863 limits assumed): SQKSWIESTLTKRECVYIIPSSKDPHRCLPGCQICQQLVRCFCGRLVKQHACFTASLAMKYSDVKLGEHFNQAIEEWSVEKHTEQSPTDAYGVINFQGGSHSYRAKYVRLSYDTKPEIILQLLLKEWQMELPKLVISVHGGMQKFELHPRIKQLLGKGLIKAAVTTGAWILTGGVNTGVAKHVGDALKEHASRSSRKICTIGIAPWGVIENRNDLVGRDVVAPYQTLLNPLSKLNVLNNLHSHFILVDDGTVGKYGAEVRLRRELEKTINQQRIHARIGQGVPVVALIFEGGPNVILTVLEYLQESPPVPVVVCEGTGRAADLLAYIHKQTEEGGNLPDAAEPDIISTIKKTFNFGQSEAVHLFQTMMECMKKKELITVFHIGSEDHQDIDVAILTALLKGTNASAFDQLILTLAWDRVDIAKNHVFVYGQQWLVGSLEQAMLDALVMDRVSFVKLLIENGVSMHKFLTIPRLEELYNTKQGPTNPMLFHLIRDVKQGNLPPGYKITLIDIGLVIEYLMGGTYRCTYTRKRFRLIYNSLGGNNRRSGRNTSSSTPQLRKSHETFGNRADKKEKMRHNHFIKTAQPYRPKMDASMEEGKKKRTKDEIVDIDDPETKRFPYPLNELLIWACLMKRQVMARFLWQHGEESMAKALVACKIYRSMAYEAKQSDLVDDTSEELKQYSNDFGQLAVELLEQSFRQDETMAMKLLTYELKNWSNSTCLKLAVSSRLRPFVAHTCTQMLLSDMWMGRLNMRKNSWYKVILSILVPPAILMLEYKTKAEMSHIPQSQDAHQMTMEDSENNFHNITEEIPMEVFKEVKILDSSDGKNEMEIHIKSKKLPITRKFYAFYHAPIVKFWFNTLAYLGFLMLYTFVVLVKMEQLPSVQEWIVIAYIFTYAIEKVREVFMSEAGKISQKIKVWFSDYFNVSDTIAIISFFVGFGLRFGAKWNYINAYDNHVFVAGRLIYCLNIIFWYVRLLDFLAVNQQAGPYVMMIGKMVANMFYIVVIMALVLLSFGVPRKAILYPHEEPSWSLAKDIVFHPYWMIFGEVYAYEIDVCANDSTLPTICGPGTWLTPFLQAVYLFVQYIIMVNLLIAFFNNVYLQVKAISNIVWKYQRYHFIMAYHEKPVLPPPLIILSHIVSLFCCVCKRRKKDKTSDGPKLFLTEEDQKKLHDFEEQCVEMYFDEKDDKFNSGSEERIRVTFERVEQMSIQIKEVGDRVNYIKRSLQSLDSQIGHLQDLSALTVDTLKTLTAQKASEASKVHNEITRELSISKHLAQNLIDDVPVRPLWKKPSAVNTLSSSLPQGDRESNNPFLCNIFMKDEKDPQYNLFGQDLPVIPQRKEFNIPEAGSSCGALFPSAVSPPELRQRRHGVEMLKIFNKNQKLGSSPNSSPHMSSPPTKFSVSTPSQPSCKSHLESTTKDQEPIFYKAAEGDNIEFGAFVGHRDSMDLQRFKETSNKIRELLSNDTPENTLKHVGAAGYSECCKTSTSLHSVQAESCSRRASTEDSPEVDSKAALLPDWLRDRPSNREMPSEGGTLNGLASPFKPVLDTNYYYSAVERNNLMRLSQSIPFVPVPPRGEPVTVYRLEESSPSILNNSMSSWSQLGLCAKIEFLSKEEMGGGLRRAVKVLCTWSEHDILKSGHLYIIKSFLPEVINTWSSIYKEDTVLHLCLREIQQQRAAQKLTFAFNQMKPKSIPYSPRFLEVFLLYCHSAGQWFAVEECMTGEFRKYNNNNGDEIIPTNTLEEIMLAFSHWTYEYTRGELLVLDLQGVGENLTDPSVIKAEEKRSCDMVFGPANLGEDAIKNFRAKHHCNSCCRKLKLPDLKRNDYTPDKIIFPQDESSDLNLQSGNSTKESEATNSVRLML

- intracellular concentration that causes the LTRPC7 channel to close ([4]; intracellular ATP): 6-10 millimolar
- intracellular concentration that causes the LTRPC7 channel to reopen ([4]; intracellular ATP): 0-4 millimolar
Structure (SMILES): Nc1ncnc2c1ncn2[C@@H]1O[C@H](COP(=O)(O)OP(=O)(O)OP(=O)(O)O)[C@@H](O)[C@H]1O [ATP]
- outwardly rectifying cationic conductance [1]: absent
- outwardly rectifying cationic conductance [2]: absent
- outwardly rectifying cationic conductance [3]: absent
- change of maximum outward current after whole-cell establishment ([4]; 6 mM ATP in pipette, +80 mV, 300 s): currents are actually decreasing after break-in
